Measurements published in patent US9393192B2, “Methods and dosage forms for controlled delivery of paliperidone and risperidone” (ALZA CORPORATION, priority 2002, dated 2016).

What was measured:
[1] = cited from earlier work
[2] = in vivo; cited from earlier work
[3] = stability testing / degradation of paliperidone; assay type: physicochemical; details: stress conditions, stability testing (FIGS. 7, 8, 9A, 9B)
Description: FIGS. 8, 9A and 9B illustrate the increased stability of paliperidone in the dosage forms incorporating the protective subcoat compared to dosage forms not incorporating the protective subcoat.

| SMILES | solubility in water [1] | half-life [2] | degradation / stability [3] |
| --- | --- | --- | --- |
| Cc1nc2n(c(=O)c1CCN1CCC(c3noc4cc(F)ccc34)CC1)CCCC2O (stereo not shown) [paliperidone] | practically insoluble in water | about one | degrades into notable amounts of impurities |
| Cc1nc2n(c(=O)c1CCN1CCC(c3noc4cc(F)ccc34)CC1)CCCC2 [risperidone] | practically insoluble in water | – | – |
